Data from patent publication US20260138959A1, “QUINAZOLINE DERIVATIVE COMPOUND AND USE THEREOF” (VORONOI INC., priority 2021, published 2026).

What was measured:
human PDGFR-α(wt) = target: T1, human PDGFR-α(wt) (Homo sapiens, UniProt P16234); experiment: Enzyme inhibitory activity, ADP-Glo kinase assay, PDGFR-α(wt); assay type: biochemical; settings: read-out: PDGFR-α (IC50 class)
T1 construct: purchased Signalchem P12-18G
Experimental: (§1) In order to evaluate the inhibitory activity of the compounds synthesized according to the above examples on PDGFR-α(wt), PDGFR-β(wt), c-KIT(wt), and c-KIT(D816V) kinases, the following method was performed. The compounds of examples were reacted with purified human PDGFR-α(wt) (Signalchem #P12-18G) enzyme, human PDGFR-β(wt) (Signalchem #P13-11G) enzyme, human c-KIT(wt) (Signalchem #K06-11BG) enzyme, human c-KIT(D816V) (Signalchem #C06-12LG) enzyme, and the enzyme inhibitory abilities were evaluated by the following method.
(§2) The reaction buffer was used as a composition of 40 mM Tris-HCl pH7.4, 20 mM MgCl2, 0.5 mg/ml BSA, 50 μM DTT, and the reactions of all the tests were carried out on the reaction buffer. The compound was diluted in 12 steps using a serial dilution method from a 10 mM DMSO stock, and the enzyme activity was measured at a final compound concentration of 10˜0.00005645 μM. During the test, the enzyme activity was confirmed using in vitro ADP-Glo™ kinase assay (Promega) after reacting with the proper concentration of human PDGFR-α(wt) enzyme, human PDGFR-β(wt), human c-KIT(wt) enzyme, and human c-KIT(D816V) enzyme with purified ATP and enzyme substrate at 25° C. for 1˜2 hours. At a ratio of 2:2:1, an enzyme-active reaction solution, an ADP-Glo reaction solution, and an enzyme-active detection solution were reacted to measure the inhibition of the enzyme's activity with luminoscence. Based on the […] of the enzyme activity of the solvent control that was not treated with the compound, the degree of enzyme activity inhibition was calculated according to the treatment concentration of each compound, and the concentration of each compound that inhibits 50% of enzyme activity was determined as IC50 (nM) value and the value was obtained by using GraphPad Prism 8.3.0 (GraphPad software Inc., San Diego) software. (A: IC50≤50 nM; B: 50 nM<IC50≤100 nM; C: 100 nM<IC50≤500 nM; D: IC50>500 nM).

Ba/F3-TEL-PDGFβ(WT) = experiment: Proliferation inhibitory activity on Ba/F3 cell (CellTiter-Glo, 72 hours), PDGFR-β; assay type: cell-based; settings: Mus musculus, BaF3, read-out: Ba/F3 (nM) Tel-PDGFRβ (GI50 class)
Experimental: (§3) Ba/F3-TEL-PDGFRα(WT), Ba/F3-TEL-PDGFβ(WT), Ba/F3-c-KIT(D816V) (Kyinno, #KC-0138), c-KIT V560G/D816V, c-KIT D814Y were seeded at 3×10^3/100 μl/well in a clear bottom white 96-well plate. A culture solution containing compounds of 12 concentrations (0.00001-2 mM) serially diluted in 3 folds and the DMSO control group was added at 0.5 μl/well each to a final concentration of 0.00005-10 μM, and then incubated in a CO2 incubator at 37° C. for 72 hours. After 72 hours, the plate treated with the compound was taken out, CellTiter-Glo® Assay (Promega) solution was treated with 100 μl/well, followed by mixing well. After mixing well for about 10 minutes at room temperature, […] was measured using a microplate reader. The data were presented as percentages in proportion to treated cells based on the vehicle, GI50 (nM) values were calculated using GraphPad Prism 8.3.0 (GraphPad software Inc., San Diego).
(§4) The inhibitory activities of Ba/F3 expressing PDGFR-α, PDGFR-β, c-KIT(D816V), c-KIT V560G/D816V, and c-KIT D814Y measured as described above were measured and shown in Table 7 below (A: GI50≤200 nM; B: 200 nM<GI50≤500 nM; C: GI50>500 nM).

c-KIT V560G/D816V = experiment: Proliferation inhibitory activity on Ba/F3 cell (CellTiter-Glo, 72 hours), c-KIT V560G/D816V; assay type: cell-based; settings: Mus musculus, BaF3, c-KIT V560G/D816V cells, read-out: Cell (nM) c-KIT V560G/D816V (GI50 class)
How it was run: (§5)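 Cells seeded (3×10^3/well), then twelve 3-fold compound concentrations added to 0.00005-10 μM final alongside DMSO control. Plates incubated 72 h at 37 °C. CellTiter-Glo reagent mixed in for ~10 min at room temperature before reading; GI50 fitted from vehicle-normalised data.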

Ba/F3-TEL-PDGFRα(WT) = experiment: Proliferation inhibitory activity on Ba/F3 cell (CellTiter-Glo, 72 hours), PDGFR-α; assay type: cell-based; settings: Mus musculus, BaF3, read-out: Ba/F3 (nM) Tel-PDGFRα (GI50 class)
Experimental: as §3, §4

human PDGFR-β(wt) = target: T2, human PDGFR-β(wt) (Homo sapiens, UniProt P09619); experiment: Enzyme inhibitory activity, ADP-Glo kinase assay, PDGFR-β(wt); assay type: biochemical; settings: read-out: PDGFR-β (IC50 class)
T2 construct: purchased Signalchem P13-11G
T2 sequence (P09619 33-1106): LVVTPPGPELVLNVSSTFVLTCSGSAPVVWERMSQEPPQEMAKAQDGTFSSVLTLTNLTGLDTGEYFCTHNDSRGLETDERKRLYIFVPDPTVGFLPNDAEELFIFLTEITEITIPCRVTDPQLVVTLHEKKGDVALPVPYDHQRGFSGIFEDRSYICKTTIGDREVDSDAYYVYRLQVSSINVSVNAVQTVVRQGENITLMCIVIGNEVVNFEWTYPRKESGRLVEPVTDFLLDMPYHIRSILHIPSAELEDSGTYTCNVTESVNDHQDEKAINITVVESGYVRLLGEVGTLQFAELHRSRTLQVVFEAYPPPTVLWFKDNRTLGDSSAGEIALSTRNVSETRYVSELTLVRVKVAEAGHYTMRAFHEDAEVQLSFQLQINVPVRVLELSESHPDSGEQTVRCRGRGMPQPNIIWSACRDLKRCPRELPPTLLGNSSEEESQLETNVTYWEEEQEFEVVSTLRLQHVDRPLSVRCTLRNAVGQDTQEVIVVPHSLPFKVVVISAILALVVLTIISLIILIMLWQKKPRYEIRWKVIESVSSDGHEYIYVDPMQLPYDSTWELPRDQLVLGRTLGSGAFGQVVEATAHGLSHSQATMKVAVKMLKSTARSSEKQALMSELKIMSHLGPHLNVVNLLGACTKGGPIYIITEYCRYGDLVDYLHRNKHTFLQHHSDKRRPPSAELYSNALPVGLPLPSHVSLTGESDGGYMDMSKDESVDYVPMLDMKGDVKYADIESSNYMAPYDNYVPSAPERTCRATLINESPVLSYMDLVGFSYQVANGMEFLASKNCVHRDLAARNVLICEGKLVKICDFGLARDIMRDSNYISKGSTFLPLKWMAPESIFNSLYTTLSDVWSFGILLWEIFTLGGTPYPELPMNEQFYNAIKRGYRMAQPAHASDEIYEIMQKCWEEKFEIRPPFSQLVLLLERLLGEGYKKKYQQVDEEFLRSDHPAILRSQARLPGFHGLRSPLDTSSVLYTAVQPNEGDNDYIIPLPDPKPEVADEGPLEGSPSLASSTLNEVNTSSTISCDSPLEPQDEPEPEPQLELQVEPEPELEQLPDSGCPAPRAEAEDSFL
Experimental: as §1, §2

Ba/F3-c-KIT(D816V) = experiment: Proliferation inhibitory activity on Ba/F3 cell (CellTiter-Glo, 72 hours), c-KIT(D816V); assay type: cell-based; settings: Mus musculus, BaF3, read-out: Ba/F3 (nM) c-KIT (D816V) (GI50 class)
How it was run: as §5

T1 sequence (P16234 24-1089): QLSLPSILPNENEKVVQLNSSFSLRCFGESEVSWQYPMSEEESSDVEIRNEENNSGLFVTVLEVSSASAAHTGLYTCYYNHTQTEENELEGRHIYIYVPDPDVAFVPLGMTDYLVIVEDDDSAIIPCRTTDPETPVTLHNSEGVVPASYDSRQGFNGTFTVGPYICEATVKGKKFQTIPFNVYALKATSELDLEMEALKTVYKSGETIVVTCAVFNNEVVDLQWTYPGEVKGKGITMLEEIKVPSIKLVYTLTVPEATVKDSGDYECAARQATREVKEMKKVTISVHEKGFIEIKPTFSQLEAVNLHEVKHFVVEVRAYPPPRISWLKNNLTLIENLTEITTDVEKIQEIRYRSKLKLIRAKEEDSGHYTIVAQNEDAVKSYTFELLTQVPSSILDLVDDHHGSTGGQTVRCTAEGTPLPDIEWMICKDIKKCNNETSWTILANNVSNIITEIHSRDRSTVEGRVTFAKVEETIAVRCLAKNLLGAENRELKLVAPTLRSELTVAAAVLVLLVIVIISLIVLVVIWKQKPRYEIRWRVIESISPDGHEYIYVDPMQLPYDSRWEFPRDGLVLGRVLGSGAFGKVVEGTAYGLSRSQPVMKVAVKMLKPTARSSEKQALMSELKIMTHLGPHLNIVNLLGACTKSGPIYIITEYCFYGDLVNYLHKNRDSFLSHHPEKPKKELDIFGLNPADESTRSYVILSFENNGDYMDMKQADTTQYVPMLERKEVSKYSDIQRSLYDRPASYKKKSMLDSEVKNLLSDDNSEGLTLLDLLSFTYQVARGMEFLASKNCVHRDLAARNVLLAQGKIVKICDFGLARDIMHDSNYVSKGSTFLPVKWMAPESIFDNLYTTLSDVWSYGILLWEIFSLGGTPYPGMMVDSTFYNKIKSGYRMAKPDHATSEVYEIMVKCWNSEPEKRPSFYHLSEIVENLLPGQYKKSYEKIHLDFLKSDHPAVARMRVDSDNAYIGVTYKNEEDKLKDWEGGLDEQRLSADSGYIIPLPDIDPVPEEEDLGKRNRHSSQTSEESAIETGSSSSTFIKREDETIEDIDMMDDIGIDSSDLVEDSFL

IC50 (human PDGFR-α(wt)) | GI50 (Ba/F3-TEL-PDGFβ(WT)) | GI50 (c-KIT V560G/D816V) | GI50 (Ba/F3-TEL-PDGFRα(WT)) | IC50 (human PDGFR-β(wt)) | GI50 (Ba/F3-c-KIT(D816V)) | SMILES
– | ≤ 200 nM | ≤ 200 nM | – | ≤ 50 nM | ≤ 200 nM | COc1cc2ncnc(-c3ccc(NC(=O)Cc4ccc(C(F)(F)F)cc4)cc3)c2cc1OCCCN1CCN2CCCC2C1 (stereo not shown) [Example 161, N-(4-(6-(3-(hexahydropyrrolo[1,2-a]pyrazin-2(1H)-yl)propoxy)-7-methoxyquinazolin-4-yl)phenyl)-2-(4-(trifluoromethyl)phenyl)acetamide]
– | ≤ 200 nM | – | – | ≤ 50 nM | – | COc1cc2c(-c3ccc(NC(=O)Cc4ccc5c(c4)OCO5)c(F)c3)ncnc2cc1OCCCN1CCN(C)CC1 [Example 163, 2-(benzo[d][1,3]dioxol-5-yl)-N-(2-fluoro-4-(6-methoxy-7-(3-(4-methylpiperazin-1-yl)propoxy)quinazolin-4-yl)phenyl)acetamide]
– | ≤ 200 nM | – | – | ≤ 50 nM | – | COc1cc2c(-c3ccc(NC(=O)Cc4ccc5c(c4)OCO5)c(C)c3)ncnc2cc1OCCCN1CCN(C)CC1 [Example 164]
– | ≤ 200 nM | – | – | ≤ 50 nM | – | COc1cc2c(-c3ccc(C(=O)NCc4ccc(C(F)(F)F)cc4)cc3)ncnc2cc1OCCCN1CCN(C)CC1 [Example 165, 4-(6-methoxy-7-(3-(4-methylpiperazin-1-yl)propoxy)quinazolin-4-yl)-N-(4-(trifluoromethyl)benzyl)benzamide]
– | ≤ 200 nM | – | – | ≤ 50 nM | – | COc1cc2c(-c3ccc(C(=O)NCc4ccc5c(c4)OCO5)cc3)ncnc2cc1OCCCN1CCN(C)CC1 [Example 166, N-(benzo[d][1,3]dioxol-5-ylmethyl)-4-(6-methoxy-7-(3-(4-methylpiperazin-1-yl)propoxy)quinazolin-4-yl)benzamide]
– | ≤ 200 nM | – | – | ≤ 50 nM | – | COc1cc2c(-c3ccc(C(=O)NCc4ccc(F)c(F)c4)cc3)ncnc2cc1OCCCN1CCN(C)CC1 [Example 167, N-(3,4-difluorobenzyl)-4-(6-methoxy-7-(3-(4-methylpiperazin-1-yl)propoxy)quinazolin-4-yl)benzamide]

The remaining lines, values behind:

SMILES | IC50 (human PDGFR-α(wt)) | GI50 (Ba/F3-TEL-PDGFβ(WT)) | GI50 (c-KIT V560G/D816V) | GI50 (Ba/F3-TEL-PDGFRα(WT)) | IC50 (human PDGFR-β(wt)) | GI50 (Ba/F3-c-KIT(D816V))
COCCN1CCC(COc2cc3ncnc(-c4ccc(NC(=O)C(C)(C)c5ccc(F)cc5)cc4)c3cc2OC)CC1 [Example 89, 2-(4-fluorophenyl)-N-(4-(6-methoxy-7-((1-(2-methoxyethyl)piperidin-4-yl)methoxy)quinazolin-4-yl)phenyl)-2-methylpropanamide] | ≤ 50 nM | ≤ 200 nM | ≤ 200 nM | ≤ 200 nM | ≤ 50 nM | –
COc1cc2c(-c3ccc(NC(=O)Cc4ccc5c(c4)OCO5)cc3)ncnc2cc1OCC1CCNCC1 [Example 97, 2-(benzo[d][1,3]dioxol-5-yl)-N-(4-(6-methoxy-7-(piperidin-4-ylmethoxy)quinazolin-4-yl)phenyl)acetamide] | – | ≤ 200 nM | > 500 nM | – | ≤ 50 nM | –
COCCN1CCC(COc2cc3ncnc(-c4ccc(NC(=O)Cc5ccc6c(c5)OCO6)cc4)c3cc2OC)CC1 [Example 98, 2-(benzo[d][1,3]dioxol-5-yl)-N-(4-(6-methoxy-7-((1-(2-methoxyethyl)piperidin-4-yl)methoxy)quinazolin-4-yl)phenyl)acetamide] | – | ≤ 200 nM | ≤ 200 nM | – | ≤ 50 nM | –
CCN1CCC(COc2cc3ncnc(-c4ccc(NC(=O)Cc5ccc6c(c5)OCO6)cc4)c3cc2OC)CC1 [Example 99, 2-(benzo[d][1,3]dioxol-5-yl)-N-(4-(7-((1-ethylpiperidin-4-yl)methoxy)-6-methoxyquinazolin-4-yl)phenyl)acetamide] | – | ≤ 200 nM | ≤ 200 nM | – | ≤ 50 nM | –
COc1ccc(CC(=O)Nc2ccc(-c3ncnc4cc(OCC5CCN(C)CC5)c(OC)cc34)cc2)cn1 [Example 100, N-(4-(6-methoxy-7-((1-methylpiperidin-4-yl)methoxy)quinazolin-4-yl)phenyl)-2-(6-methoxypyridin-3-yl)acetamide] | – | ≤ 200 nM | ≤ 200 nM | – | ≤ 50 nM | –
CCN1CCCC(COc2cc3ncnc(-c4ccc(NC(=O)Cc5ccc(OC)nc5)cc4)c3cc2OC)C1 (stereo not shown) [Example 109, N-(4-(7-((1-ethylpiperidin-3-yl)methoxy)-6-methoxyquinazolin-4-yl)phenyl)-2-(6-methoxypyridin-3-yl)acetamide] | – | ≤ 200 nM | ≤ 200 nM | – | ≤ 50 nM | –
CCN1CCCC(COc2cc3ncnc(-c4ccc(NC(=O)Cc5ccc(C(F)(F)F)nc5)cc4)c3cc2OC)C1 (stereo not shown) [Example 110, N-(4-(7-((1-ethylpiperidin-3-yl)methoxy)-6-methoxyquinazolin-4-yl)phenyl)-2-(6-(trifluoromethyl)pyridin-3-yl)acetamide] | – | ≤ 200 nM | ≤ 200 nM | – | ≤ 50 nM | –
COCCN1CCC(COc2cc3ncnc(-c4ccc(NC(=O)Cc5ccc(Cl)nc5)cc4)c3cc2OC)CC1 [Example 113, 2-(6-chloropyridin-3-yl)-N-(4-(6-methoxy-7-((1-(2-methoxyethyl)piperidin-4-yl)methoxy)quinazolin-4-yl)phenyl)acetamide] | – | ≤ 200 nM | ≤ 200 nM | – | ≤ 50 nM | –
COc1ccc(CC(=O)Nc2ccc(-c3ncnc4cc(OCC5CCN(C(C)C)CC5)c(OC)cc34)cc2)cn1 [Example 116, N-(4-(7-((1-isopropylpiperidin-4-yl)methoxy)-6-methoxyquinazolin-4-yl)phenyl)-2-(6-methoxypyridin-3-yl)acetamide] | – | ≤ 200 nM | ≤ 200 nM | – | ≤ 50 nM | –
COc1cc2c(-c3ccc(NC(=O)Cc4ccc(C(F)(F)F)nc4)cc3)ncnc2cc1OCC1CCN(C(C)C)CC1 [Example 121, N-(4-(7-((1-isopropylpiperidin-4-yl)methoxy)-6-methoxyquinazolin-4-yl)phenyl)-2-(6-(trifluoromethyl)pyridin-3-yl)acetamide] | – | ≤ 200 nM | ≤ 200 nM | – | ≤ 50 nM | –
COc1cc2ncnc(-c3ccc(NC(=O)Cc4ccc(F)cc4)cc3)c2cc1O [Example 124, 2-(4-fluorophenyl)-N-(4-(6-hydroxy-7-methoxyquinazolin-4-yl)phenyl)acetamide] | ≤ 50 nM | ≤ 200 nM | – | ≤ 200 nM | 100 to 500 nM | –
COc1cc2c(-c3ccc(NC(=O)Cc4ccc(C(F)(F)F)cc4)cc3)ncnc2cc1OCCCN1CCN(C2CC2)CC1 [Example 142, N-(4-(7-(3-(4-cyclopropylpiperazin-1-yl)propoxy)-6-methoxyquinazolin-4-yl)phenyl)-2-(4-(trifluoromethyl)phenyl)acetamide] | – | ≤ 200 nM | ≤ 200 nM | – | ≤ 50 nM | ≤ 200 nM
COc1cc2ncnc(-c3ccc(NC(=O)Cc4ccc(C(F)(F)F)cc4)cc3)c2cc1OCCCN1C[C@@H]2C[C@H]1CN2C [Example 158, N-(4-(7-methoxy-6-(3-((1S,4S)-5-methyl-2,5-diazabicyclo[2.2.1]heptane-2-yl)propoxy)quinazolin-4-yl)phenyl)-2-(4-(trifluoromethyl)phenyl)acetamide] | – | ≤ 200 nM | 200 to 500 nM | – | ≤ 50 nM | ≤ 200 nM
